Values quoted from earlier work in patent US20200253945A1, “DELAYED RELEASE DEFERIPRONE TABLETS AND METHODS OF USING THE SAME” (Chiesi Farmaceutici S.p.A., priority 2017, published 2020).

Columns and labels:
[1] = patients who begin therapy with deferiprone
[2] = in vivo

## Cc1c(O)c(=O)ccn1C [deferiprone, Deferiprone]
[1]
  patients with gastric distress: 15-30%
[2]
  elimination half-life: about 2 hours
